Data reported in article PMC11106541, “Library screening identifies commercial drugs as potential structure correctors of abnormal apolipoprotein A-I” (Journal of Lipid Research, 2024).
Like-named read-outs stand apart in the source and are kept apart here.

Tests used:
apoA-I[L178P] [1] = target: T1, apoA-I[L178P] (Homo sapiens, UniProt P02647, L202P); assay: ITC (also Tm shift by CD thermal denaturation, EC50 […]; TSA; ANS); assay type: binding
T1 construct: gene APOA1; recombinant lipid-free apoA-I (243 residues) expressed in E. coli, thioredoxin/His tag removed with 3C protease
T1 sequence (P02647 25-267 L202P): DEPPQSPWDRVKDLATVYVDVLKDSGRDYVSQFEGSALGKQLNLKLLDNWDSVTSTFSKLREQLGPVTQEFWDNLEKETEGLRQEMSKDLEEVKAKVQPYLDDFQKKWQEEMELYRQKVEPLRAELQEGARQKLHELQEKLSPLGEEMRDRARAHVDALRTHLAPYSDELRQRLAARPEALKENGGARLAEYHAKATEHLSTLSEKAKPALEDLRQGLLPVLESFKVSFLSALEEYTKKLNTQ

apoA-I[L178P] [2] = target: T1, apoA-I[L178P]; assay: as above; assay type: binding; remark: listed apart in the source

For `CC(C)c1c(C(=O)Nc2ccccc2)c(-c2ccccc2)c(-c2ccc(F)cc2)n1CC[C@@H](O)C[C@@H](O)CC(=O)O` [C8, atorvastatin], which EC50 (apoA-I[L178P] [1]) is on record?
Its EC50 is 400 µM.

`C=C(c1ccc(C(=O)O)cc1)c1cc2c(cc1C)C(C)(C)CCC2(C)C` [C9-p1, bexarotene] was tested. Which EC50 (apoA-I[L178P] [2]) did it give?
The EC50 was 98 µM.
